Experimental data taken from patent US9163020B2, “Azaindole compounds, synthesis thereof, and methods of using the same” (Global Alliance for TB Drug Development, priority 2013, dated 2015).
Values after ≈ are worked out from the molar mass of the structure shown. Read-outs that look alike come from different tables or passages of the source.

What was measured:
in vitro [1] = type: in vitro ADME; conditions: plasma
Experimental: Protein binding is measured using the equilibrium dialysis technique. Compound is added to 10% plasma giving a concentration of 20 μM and dialysed with isotonic buffer for 18 hours at 37° C. The plasma and buffer solutions are analysed using generic LCUVMS and the first apparent binding constant for the compound derived. The binding constant is then used to determine the % free in 100% plasma.

[2] = system: CYP1A2, CYP2C9, CYP2C19, CYP2D6, CYP3A4; conditions: human
[3] = system: Mycobacterium tuberculosis (Mtb) H37Rv; experiment: Mtb minimal bactericidal concentration (MBC), plating from MIC plates; type: cell-based; conditions: Table 4, read-out: Mtb MBC
Experimental: Aliquots from sample wells (MIC and higher) from the MIC plates were diluted 1:10 and plated on 7H10 agar plates. Plates were incubated at 37° C. for 3-4 weeks, CFU was enumerated.

[4] = system: panel of human targets and cardiac channels
[5] = infected BALB/c mice, chronic efficacy, multiple oral doses 30 mg/kg, +ABT
hERG = hERG (Homo sapiens, UniProt Q12809)
Sequence of hERG (Q12809 whole entry): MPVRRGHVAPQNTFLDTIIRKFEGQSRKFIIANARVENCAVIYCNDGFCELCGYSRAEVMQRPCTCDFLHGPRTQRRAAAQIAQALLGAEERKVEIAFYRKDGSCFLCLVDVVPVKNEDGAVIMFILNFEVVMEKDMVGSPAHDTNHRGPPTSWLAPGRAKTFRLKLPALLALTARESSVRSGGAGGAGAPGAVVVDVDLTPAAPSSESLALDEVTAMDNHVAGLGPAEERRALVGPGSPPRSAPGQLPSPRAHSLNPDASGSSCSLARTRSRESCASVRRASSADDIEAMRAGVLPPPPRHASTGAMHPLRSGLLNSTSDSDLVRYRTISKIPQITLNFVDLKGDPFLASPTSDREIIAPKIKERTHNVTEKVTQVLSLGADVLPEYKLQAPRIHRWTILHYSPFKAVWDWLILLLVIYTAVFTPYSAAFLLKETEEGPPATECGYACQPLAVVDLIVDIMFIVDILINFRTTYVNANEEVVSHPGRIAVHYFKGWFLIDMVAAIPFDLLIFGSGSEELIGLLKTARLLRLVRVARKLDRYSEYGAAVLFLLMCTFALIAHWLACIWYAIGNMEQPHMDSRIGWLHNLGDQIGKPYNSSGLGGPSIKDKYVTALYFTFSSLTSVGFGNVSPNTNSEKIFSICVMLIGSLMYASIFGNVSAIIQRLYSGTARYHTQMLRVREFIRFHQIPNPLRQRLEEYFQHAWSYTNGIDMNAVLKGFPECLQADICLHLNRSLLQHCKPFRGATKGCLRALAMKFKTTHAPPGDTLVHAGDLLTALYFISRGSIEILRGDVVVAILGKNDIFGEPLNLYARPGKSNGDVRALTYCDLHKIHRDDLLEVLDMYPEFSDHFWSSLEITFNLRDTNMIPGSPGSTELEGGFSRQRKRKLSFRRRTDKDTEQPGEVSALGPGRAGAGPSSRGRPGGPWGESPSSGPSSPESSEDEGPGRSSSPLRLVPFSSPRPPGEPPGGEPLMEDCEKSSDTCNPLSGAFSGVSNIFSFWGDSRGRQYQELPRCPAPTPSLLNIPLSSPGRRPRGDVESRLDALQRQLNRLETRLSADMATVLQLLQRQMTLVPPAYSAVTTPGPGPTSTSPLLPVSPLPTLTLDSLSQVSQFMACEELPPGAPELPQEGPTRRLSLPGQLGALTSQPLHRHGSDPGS
Experimental: Compounds were tested on voltage-gated ion channels using the medium-throughput electrophysiology IonWorks™ device. […] For carrying out the experiment, a boat in the “Cells” position of the IonWorks™ instrument was loaded with the cell suspension, and a 96-well PBS destination plate was placed in the “Plate 1” position. A 384-well PatchPlate™ was placed in the IonWorks™ plenum and held in position using the plenum clamp. From this point the experiment progress is automated and ultimately reports a non-cumulative concentration-effect curve for test compound.

in vivo = conditions: BALB/c, mouse, po
[6] = infected BALB/c mice, acute efficacy, +ABT
in vitro [7] = type: in vitro ADME; conditions: pH 7.4; mouse microsomes; read-out: Mo micrsomal Clint
Experimental: 1 μM compound was incubated with 1 mg/mL of microsomes (Pooled HLM/MLM with 20 mg/ml protein cone.) at 37° C. in 166 μL of buffer (100 mM phosphate buffer, pH-7.4) containing 2 mM NADPH solution. 20 μL of incubation mix was quenched with 4 volumes chilled acetonitrile at different time points i.e. 0, 2, 5, 10, 20 and 30 min in a fresh 96 well plate. The quench plate was centrifuged at 4000 rpm for 15 min. 30 μL of supernatant was diluted to 300 μL with 50% acetonitrile in water and substrate depletion was analyzed using LC-MS/MS.

physchem = type: physicochemical; conditions: 25 °C, pH 7.4, aqueous buffer, thermodynamic from solid
Experimental: Solubility of the compounds in 0.1M phosphate buffer, pH 7.4 was determined as described, Glyburide was used as QC standard in the assay. Briefly, compounds were diluted in ACN/water (40:60) to desired concentration, samples were dried using Genevac for 4 hrs and subsequently 800 μl of buffer was added. Compound containing plates were stirred for 24 hrs at 25° C. on Eppendorf Thermomix R at 750 rpm. Finally, compound concentration was estimated using UV and MS analysis.

COc1ncnc(Cn2cc(C(=O)NCCF)c3ncccc32)c1C [Compound 3, N-(2-fluoroethyl)-1-((6-methoxy-5-methylpyrimidin-4-yl)methyl)-1H-pyrrolo[3,2-b]pyridine-3-carboxamide]
fraction unbound at 18 h, 20 μM (in vitro [1]; human): 0.05 to 0.22
Human PPB (% free) (in vitro [1]): 9.8 % free
CYP inhibition [2]: >50 µM
MBC [3]: 1.56 to 3.12 µM (≈ 0.536 to 1.07 µg/mL)
Secondary pharmacology hits IC50 [4]: No significant hits
in vitro safety profiling [4]: no major safety liabilities
% T > MIC [5]: 92%
% fT > MIC [5]: 29%
hERG (hERG): >33 µM
AUC (in vivo): 200 to 700 µM·h
AUC(0-inf) (in vivo; 30 mg/kg): 252 ± 64 µM·h
Cmax (in vivo; 30 mg/kg): 32.8 ± 14.4 µM
half-life (in vivo; 30 mg/kg): 268 ± 9.6 min
% T > MIC ([6]; multiple oral doses 50 mg/kg): 58%
% fT > MIC ([6]; multiple oral doses 50 mg/kg): 23%
% T > MIC ([6]; multiple oral doses 100 mg/kg): 66%
% fT > MIC ([6]; multiple oral doses 100 mg/kg): 41%
microsomal CLint (in vitro [7]): 104 µL/min/mg
solubility at 24 h (physchem): 8 µM (≈ 2.75 µg/mL)
